Results from patent US9023805B2, “Increasing cancer patient survival time by administration of dithio-containing compounds” (BioNumerik Pharmaceuticals, Inc., priority 2010, dated 2015).
Entries after “also recorded” stand apart in the source; their conditions may differ.

Legend:
[1] = test system: coupled thioredoxin (TX)/thioredoxin reductase (TXR) system; experiment: NADPH oxidation, thioredoxin reductase + thioredoxin; type: biochemical, bovine; conditions: for NADPH Oxidation, Thioredoxin Reductase + Thioredoxin: Disulfide 0.5 mM, minimum of triplicate assays
Procedure: (§1) The activity of TXR and TX was determined by following NADPH oxidation at 340 nm according to the previously reported method. See, Luthman, M., and Holmgren, A. Rat liver thioredoxin and thioredoxin reductase: purification and characterization. Biochemistry 21:6628-6633 (1982). A typical assay mixture contained TR buffer (50 mM potassium phosphate, pH 7.0, 1 mM EDTA), […] NADPH, 1.6 μg bovine TX, and one or more of the following: 4.8 μM TXR, 86 μM insulin, and one of the disulfides described herein. All disulfides were added to reactions as 10× solutions in TR buffer. The total volume of each reaction was 0.1 mL. Reactions were initiated by the addition of TX and were incubated at 25° C. for 40 min. The activity was calculated using a 4 min. linear portion of each reaction. Enzyme assays were carried out using either a Molecular Devices SpectraMaxPlus UV plate reader or a Varian Cary 100 UV-visible Spectrophotometer.
Data was then collected and plotted in Microsoft Excel. Error calculations, and graphical representations were performed in Microsoft Excel and Kaleidograph (ver. 3.5). Nonlinear data was graphically rendered using Kaleidograph. ANOVA and other statistical analyses were performed using SAS (ver. 8.2). Unless otherwise noted, significance level was set at 0.05, and error bars represent actual experimental standard deviation.

[2] = molecular target: T1, glutathione reductase (GR) (Homo sapiens, UniProt P00390); experiment: NADPH oxidation, GR; type: biochemical
T1 sequence (P00390 44-522): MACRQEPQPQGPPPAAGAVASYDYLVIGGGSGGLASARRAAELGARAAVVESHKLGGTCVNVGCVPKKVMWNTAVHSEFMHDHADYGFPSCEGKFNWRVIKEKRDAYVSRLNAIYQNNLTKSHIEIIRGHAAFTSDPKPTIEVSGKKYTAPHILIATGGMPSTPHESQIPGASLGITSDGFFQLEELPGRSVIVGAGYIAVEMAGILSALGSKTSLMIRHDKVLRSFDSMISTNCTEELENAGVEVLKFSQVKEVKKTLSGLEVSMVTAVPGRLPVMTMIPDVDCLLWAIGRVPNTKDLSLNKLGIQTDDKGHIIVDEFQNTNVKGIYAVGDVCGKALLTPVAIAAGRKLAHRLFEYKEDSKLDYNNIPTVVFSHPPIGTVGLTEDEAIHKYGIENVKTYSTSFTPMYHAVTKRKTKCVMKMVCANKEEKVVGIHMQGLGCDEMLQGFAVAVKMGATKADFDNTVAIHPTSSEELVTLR
Procedure: (§2) The Formula (I) compound was utilized at a concentration of 0.5 mM.

[3] = molecular target: T2, coupled glutaredoxin (GRX)/glutathione (GSH)/glutathione reductase (GR) system (Homo sapiens, UniProt P35754); experiment: NADPH oxidation, GR + GRX + GSH; type: biochemical; conditions: in the presence of reduced glutathione and glutathione reductase
T2 sequence (P35754 2-106 limits assumed): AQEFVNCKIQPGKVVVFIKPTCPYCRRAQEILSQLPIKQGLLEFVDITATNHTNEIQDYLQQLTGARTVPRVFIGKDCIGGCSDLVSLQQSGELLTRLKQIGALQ
Procedure: as §2

[4] = test system: coupled thioredoxin (TX)/thioredoxin reductase (TXR) system; experiment: TX/TXR catalyzed reduction of the insulin A-B chain disulfide; type: biochemical, bovine
Procedure: as §1

[5] = molecular target: T3, Glutathione-S-Transferase (GST) (Homo sapiens, UniProt P09488); experiment: GST assay: conjugation of reduced glutathione to 1-chloro-2,4-dinitrobenzene (CDNB); type: biochemical; conditions: read-out: Percent Inhibition
T3 construct: purchased
T3 sequence (P09488 2-218 limits assumed): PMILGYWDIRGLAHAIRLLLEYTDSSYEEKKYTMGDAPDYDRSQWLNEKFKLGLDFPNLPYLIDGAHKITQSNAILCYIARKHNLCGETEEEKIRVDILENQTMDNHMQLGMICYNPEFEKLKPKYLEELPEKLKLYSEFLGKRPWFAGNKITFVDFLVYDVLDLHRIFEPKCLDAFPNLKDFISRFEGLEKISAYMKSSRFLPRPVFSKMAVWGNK
Procedure: An in vitro assay for GST has been developed and reported. See, Meyer, D. J. and Ketterer, B., Purification of soluble human glutathione S-transferases. Methods Enzymol. 252:53-65 (1995). This assay monitors the conjugation of reduced glutathione to 1-chloro-2,4-dinitrobenzene (CDNB), as illustrated in Reaction Scheme II, below.
Reduced thiol forms a conjugate with CDNB (extinction coefficient=9600 M^−1 cm^−1), which is detected at 340 nm. […] A typical 1 mL assay was set up by mixing 500 μl NaHPO4 buffer (200 mM, pH 6.5), 20 μL GSH (50 mM), 20 μL CDNB (50 mM), and 458 μL sterile water. Reactions were incubated at 20° C. in the cuvette holder of the spectrophotometer for approximately 5 min. prior to initiating the assay with the addition of enzyme (ml−1 isotype of GST; activity >100 U/mg). The enzyme stock purchased from the vendor was diluted 1:100 in 200 mM NaHPO4 buffer (pH 6.5), and 2 μL of the diluted enzyme was added to initiate the reaction. The final amount of enzyme added to the assay was typically 0.002 U. Assays were run at 20° C. in 1 mL quartz cuvettes (Hellma Scientific). Slopes were measured in the linear range of the assay (i.e., typically between 5 to 10 min.). […] Final reaction volumes were fixed at 1 mL by adjusting the amount of water added.
a. […]
Raw data was obtained on a Cary 100 spectrophotometer. […] No absorbance values were collected during the process of enzyme addition. […] It was during this time that reaction rates (i.e., slopes of change in absorbance with time) were measured using the Cary 100 software. […] Absorbance and time values during the end phase of the reaction were not used in slope calculations because the reaction was effectively over at this point as the reaction no longer followed the classical Michaelis-Menton model for enzyme kinetics. Completion of the reaction on the Cary software could be detected visually by overlaying a straight line beginning at the addition of enzyme and extending past the end phase of the assay curve. […]

[6] = test system: patients with advanced, Stage IIIB/IV, non-small cell lung carcinoma (NSCLC), including the adenocarcinoma sub-type; experiment: U.S. Phase II NSCLC Clinical Trial; type: in vivo, human
Procedure: (§3) Darbepoetin alfa (200 μg; subcutaneous administration) was administered on day one of the chemotherapy cycle and pegfilgrastim (6 mg subcutaneous administration) was administered on day two of the chemotherapy cycle if the patient's hemoglobin levels were ≦11 g/dL. The aforementioned chemotherapy cycle was repeated every two weeks, for up to a total of six cycles.

[7] = test system: patients with advanced non-small cell lung carcinoma (NSCLC), including the adenocarcinoma sub-type; experiment: Japan Phase III Clinical Trial; type: in vivo, human
Procedure: as §3
Patients admitted into the trial included those patients without previous treatment (excluding surgical treatment, administration of Picibanil into the serous membrane, irradiation of 30% or less hematopoietic bone, or oral chemotherapeutic agents within 3 months of entry in the trial).
The Japan Phase III Clinical Trial was conducted as a double-blind study because peripheral neuropathy is diagnosed based on subjective symptoms evaluated through clinical interviews, lab tests, and the like. Accordingly, evaluations by both physicians and patients are highly important. […] A placebo was used as control since there is no established therapy or drug for preventing peripheral neuropathy. Because the severity of peripheral neuropathy is evaluated based on patient's reports (i.e., subjective symptoms), the Peripheral Neuropathy Questionnaire (PNQ©) was used in primary evaluation. CIPN-20 and NCI-CTC were used in secondary evaluation. The incidence and severity of adverse reactions, time to their onset, etc. and the like, were compared between patients treated with Tavocept™ and those given a placebo using the aforementioned methods.

[8] = test system: whole cells; experiment: Whole cell mediated disulfide reduction; type: cell-based; conditions: mesna in combination with cisplatin
[9] = Grade 3 and Grade 4 treatment-related adverse events, Tavocept™ arm versus non-Tavocept™ arm, FIG. 15
[10] = Tavocept™ and chemotherapy vs chemotherapy and placebo

Compound: NC(CSSCCS(=O)(=O)O)C(=O)O (centres unmarked) [BNP7766]
- substrate (alternative substrate inhibitor) for thioredoxin / the coupled thioredoxin/thioredoxin reductase/NADPH system [1]: substrates
- NADPH Oxidation, Thioredoxin Reductase + Thioredoxin [1]: 14.4 ± 0.2 nmol/min/mL

Compound: NC(CCSSCCS(=O)(=O)O)C(=O)O (centres unmarked) [BNP7768]
- substrate (alternative substrate inhibitor) for thioredoxin / the coupled thioredoxin/thioredoxin reductase/NADPH system [1]: substrates
- NADPH Oxidation, Thioredoxin Reductase + Thioredoxin [1]: 8.6 ± 0.06 nmol/min/mL

Compound: N[C@@H](CCC(=O)N[C@@H](CSSCCS(=O)(=O)O)C(=O)NCC(=O)O)C(=O)O [BNP7772]
- substrate (alternative substrate inhibitor) for thioredoxin / the coupled thioredoxin/thioredoxin reductase/NADPH system [1]: substrates
- NADPH Oxidation, Thioredoxin Reductase + Thioredoxin [1]: 14.1 ± 0.1 nmol/min/mL
- substrate for glutathione reductase [2]: alternative substrate inhibitor

Compound: NC(CCC(=O)NC(CSSCCS(=O)(=O)O)C(=O)O)C(=O)O (centres unmarked) [BNP7774]
- substrate (alternative substrate inhibitor) for thioredoxin / the coupled thioredoxin/thioredoxin reductase/NADPH system [1]: substrates
- NADPH Oxidation, Thioredoxin Reductase + Thioredoxin [1]: 9.6 ± 0.2 nmol/min/mL

Compound: N[C@@H](CSSCCS(=O)(=O)O)C(=O)NCC(=O)O [BNP7776]
- substrate (alternative substrate inhibitor) for thioredoxin / the coupled thioredoxin/thioredoxin reductase/NADPH system [1]: substrates
- NADPH Oxidation, Thioredoxin Reductase + Thioredoxin [1]: 15.8 ± 0.3 nmol/min/mL

Compound: O=S(=O)([O-])CCSSCCS(=O)(=O)[O-].[Na+].[Na+] [Tavocept™, disodium 2,2′-dithio-bis-ethane sulfonate]
- substrate-like / alternative substrate inhibitor activity with glutaredoxin (coupled GRX/GSH/GR system) [3]: substrate-like activity
- inhibition of TX/TXR catalyzed reduction of the insulin A-B chain disulfide bond [4]: inhibits
- Km ([4]; read-out: Km for inhibition of thioredoxin/thioredoxin reductase catalyzed reduction of the insulin A-B chain disulfide): 3.6 mM
- oxidation of reduced thioredoxin to oxidized thioredoxin [1]: drives the oxidation
- substrate (alternative substrate inhibitor) for thioredoxin / the coupled thioredoxin/thioredoxin reductase/NADPH system [1]: substrate; also recorded: most likely a substrate for TX
- NADPH Oxidation, Thioredoxin Reductase + Thioredoxin [1]: 13.1 ± 0.2 nmol/min/mL
- NADPH oxidation by TXR in the presence of TX ([1]; FIG. 17): concentration-dependent increase
- Km ([1]; read-out: Km as substrate for the coupled thioredoxin/thioredoxin reductase system): 72 µM
- substrate for glutathione reductase [2]: not a substrate
- inhibition at 1100 µM [5]: 5.6%
- inhibition at 3300 µM [5]: 39%
- inhibition at 10000 µM [5]: 66.4%
- hazard ratio, adenocarcinoma ([6]; FIG. 14): 0.601
- reduction in dehydration [6, 9]: 50%
- reduction in hypomagnesaemia [6, 9]: 100%
- reduction in nausea [6, 9]: 38.5%
- reduction in vomiting [6, 9]: 71.5%
- hazard ratio ([6]; NSCLC, FIG. 12): 0.750
- increase in patient survival, adenocarcinoma ([6]; Tavocept™ arm versus non-Tavocept™ arm, FIG. 14): 6.54 month
- increase in patient survival, adenocarcinoma ([6]; Tavocept™ arm versus non-Tavocept™ arm, FIG. 14, listed as Tavocept): ~6.5 month
- chemotherapy-induced kidney damage [7, 10]: medically-important reductions
- chemotherapy-induced vomiting/emesis [7, 10]: medically-important reductions
- patients with Grade 3 (severe) decrease in red blood cell ([7]; Tavocept™ arm, FIG. 7): 1 patients
- Response Rate, as measured by physicians ([7]; Tavocept™ arm, FIG. 8 "Doctor"): 41.9%
- reduction in severe (Grade D or E) peripheral neuropathy (PNQ) ([7]; paclitaxel/Tavocept™/cisplatin vs paclitaxel/saline placebo/cisplatin, FIG. 5, GEE P-Value 0.1565 (FIG. 6)): ~50%
- anorexia ([7]; vs placebo regimen, p=0.0029): reductions
- fatigue ([7]; vs placebo regimen, p=0.0163): reductions
- nausea/vomiting ([7]; vs placebo regimen, p=0.0240): reductions
- diarrhea ([7]; vs placebo regimen, p=0.0859): reductions
- insomnia ([7]; vs placebo regimen, p=0.1108): reductions
- constipation ([7]; vs placebo regimen, p=0.1114): reductions

Compound: O=S(=O)([O-])CCS.[Na+] [mesna, 2-mercapto ethane sulfonate sodium]
- reduction of hydroxyethyldisulfide (GRX substrate) by whole cells [8]: enhanced
- reduction of α-lipoic acid (TX/TXR substrate) by whole cells [8]: enhanced
